# From patent US20110166135A1, “AROMATIC NITROGEN-CONTAINING 6-MEMBERED RING COMPOUNDS AND THEIR USE” (priority 2008, published 2011)
# Target: T1, PDE10 (PDE10A) (Bos taurus, UniProt A0A3Q1MHJ4)
# T1 construct: isolated and prepared from bovine corpus striatum; from tissue; host or cells: bovine corpus striatum
# T1 sequence (A0A3Q1MHJ4 1-1068): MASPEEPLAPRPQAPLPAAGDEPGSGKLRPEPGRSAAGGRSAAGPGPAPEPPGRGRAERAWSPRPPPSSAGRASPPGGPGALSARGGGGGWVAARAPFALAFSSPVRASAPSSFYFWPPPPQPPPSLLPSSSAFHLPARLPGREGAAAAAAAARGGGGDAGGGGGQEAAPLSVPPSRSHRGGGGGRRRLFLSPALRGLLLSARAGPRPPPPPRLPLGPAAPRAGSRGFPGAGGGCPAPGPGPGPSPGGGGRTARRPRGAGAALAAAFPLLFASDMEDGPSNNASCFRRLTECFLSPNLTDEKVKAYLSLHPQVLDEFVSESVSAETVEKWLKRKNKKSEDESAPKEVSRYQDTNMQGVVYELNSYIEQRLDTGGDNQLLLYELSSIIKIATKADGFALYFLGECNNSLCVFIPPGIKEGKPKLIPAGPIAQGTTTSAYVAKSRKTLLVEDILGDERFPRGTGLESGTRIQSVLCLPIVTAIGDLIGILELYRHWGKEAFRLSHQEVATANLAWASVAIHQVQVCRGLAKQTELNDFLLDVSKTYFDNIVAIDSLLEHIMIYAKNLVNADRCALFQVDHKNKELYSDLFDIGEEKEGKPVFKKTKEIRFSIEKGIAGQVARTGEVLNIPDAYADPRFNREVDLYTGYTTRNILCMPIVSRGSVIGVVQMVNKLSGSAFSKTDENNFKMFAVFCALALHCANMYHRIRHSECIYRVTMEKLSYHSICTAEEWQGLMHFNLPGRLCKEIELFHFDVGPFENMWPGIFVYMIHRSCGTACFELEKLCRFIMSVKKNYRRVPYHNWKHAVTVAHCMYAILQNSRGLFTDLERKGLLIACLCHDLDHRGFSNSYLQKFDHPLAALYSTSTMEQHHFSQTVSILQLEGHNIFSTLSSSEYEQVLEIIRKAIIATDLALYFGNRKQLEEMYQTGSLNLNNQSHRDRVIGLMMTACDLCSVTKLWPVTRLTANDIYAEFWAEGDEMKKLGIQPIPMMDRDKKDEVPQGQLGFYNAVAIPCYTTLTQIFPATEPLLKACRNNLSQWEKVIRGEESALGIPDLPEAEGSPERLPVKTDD
# Test: Measurement of PDE10 inhibitory activity (radiolabeled nucleotide PDE assay, Method-A or Method-B)
# Assay type: biochemical
# Conditions: Method-A: [3H]-cAMP substrate, 37° C., 30 minutes, enzyme from bovine corpus striatum
# Method: (1) The enzyme PDE10 (PDE10A) was isolated and prepared from bovine corpus striatum, according to the methods described in references Fujishige et al., Eur. J. Biochem., vol. 266, pp. 1118-1127, 1999. The enzyme solution obtained was used for a PDE assay.
# The PDE assay was performed according to the method described in Kotera et al. (Kotera et al., Biochem. Pharmacol., vol. 60, pp. 1333-1341, 2000), by the radiolabeled nucleotide method.
# Specifically, the measurements of the inhibitory activities were carried out in one of the following methods.
# (Method-A) The enzymatic reaction was carried out in 500 μl of assay buffer [50 mM Tris-HCl, pH8.0, 5 mM MgCl2, 4 mM 2-mercaptoethanol, 0.33 mg/ml bovine serum albumin] containing as a substrate about 4.8 nM [^3H]-cAMP+0.25 μM unlabeled cAMP (available from Amersham Biosciences) or about 9.6 nM [^3H]-cAMP.
# The reaction was carried out for 30 minutes while keeping the temperature at 37° C. It was stopped by boiling the reaction mixture for 1.5 minutes, and further added thereto was 100 μl of snake venom (Crotalus atrox snake venom 1 mg/ml) and the temperature was kept at 37° C. for 30 minutes. Then 500 μl of methanol was added, and the reaction mixture was applied to a Dowex column (1×8 200-400). Subsequently, scintillation cocktail was added to each aliquot of the eluant, and the radioactivity was measured in a scintillation counter. Thus, PDE activity taking cAMP as a substrate (an activity to hydrolyze cAMP) was measured.
# In the measurements of the inhibitory activities of compounds, a test compound was added to the above-mentioned reaction mixture, in various concentrations, and PDE activity was measured in the presence or absence of the test compound. From the measurements, its PDE10 (PDE10A) inhibitory activity was determined.
# (Method-B) The test compounds were dissolved in dimethyl sulfoxide (DMSO). 2 μL of the compound solution was added to 96 well plate, and the reaction mixture (20 μL of PDE enzyme solution in 50 mM Tris-HCl, pH 8.0, 40 μL of the assay buffer (50 mM Tris-HCl, pH 8.0, 2 mM MgCl2, 0.07% 2-mercaptoethanol, and 0.825 mg/mL bovine serum albumin), and 20 μL of 1 mg/mL snake venom) was added to the 96 well plate. The enzyme reaction was started by adding and mixing with substrate solution of 20 μL containing approximate 35 nM [5′,8-3H]cAMP in 50 mM Tris-HCl, pH 8.0. The final concentration of cAMP in the reaction mixtures was 7 nM. The reaction mixtures were incubated at room temperature for 90 min under dark conditions. After incubation, the reaction was stopped by adding 100 μL of methanol and resultant solutions were applied to filter plate containing Dowex (1×8 200-400) and centrifuged. 50 μL of the eluate together with wash eluate with additional 100 μL methanol was collected in another plate and the radioactivity was measured with 250 μL of scintillant.
# (2) The compounds in the Examples below were tested for PDE inhibition using (Method-A) or (Method-B) described above.
row,Compound,IC50
1,COc1ccc(-c2cc(N3CCCC3)nc(/C=C/c3nc(C)cnc3C)n2)cc1OC [Example 1.057],29 nM
2,Cc1cnc(/C=C/c2nc(-c3ccccn3)cc(N3CCCC3)n2)nc1N(C)C [Example 1.071],31 nM
3,COc1ccc(-c2cc(N3CCN(C)CC3)nc(/C=C/c3nc(-n4ccnc4)c4ccccc4n3)n2)cc1OC [Example 1.010],46 nM
4,COc1ccc(-c2cc(N3CCN(C)C3=O)nc(/C=C/c3nc(N4CCCC4)c4ccccc4n3)n2)cc1OC [Example 1.013],4.2 nM
5,COc1ccc(-c2cc(N3CCCC3)nc(/C=C/c3nc(C)nc4c3CCN4C)n2)cc1OC [Example 1.055],9.7 nM
6,COc1cc(OC)nc(OCc2cc(-c3ccc(OC)c(OC)c3)nc(N3CCCC3)n2)n1 [Example 3.029],38 nM
7,Cc1nc(OCc2cc(-c3ccco3)nc(N3CCCC3)n2)nc(N(C)C)c1C [Example 3.017],35 nM
8,CN(C)c1nc(OCc2cc(N3CCCC3)nc(-c3cccnc3)n2)nc2ccccc12 [Example 3.034],24 nM
9,COc1ccc(-c2cc(N3CCn4ccnc4C3)nc(/C=C/c3nc(N(C)C)c4ccccc4n3)n2)cc1OC [Example 1.008],0.44 nM

# Same assay, conditions: Method-B: 96 well plate, 7 nM cAMP, room temperature, 90 min, enzyme from bovine corpus striatum
row,Compound,IC50
1,Cc1nc2ccccc2nc1/C=C/c1nc(C(=O)NC2CCOCC2)cc(N2CCCC2)n1 [Example 1.208],0.62 nM
2,Cc1nc2ccccc2nc1/C=C/c1nc(CNC2CCOCC2)cc(N2CCCC2)n1 [Example 1.268],0.7 nM
3,CN(C(=O)c1cc(N2CCCC2)nc(/C=C/c2nc3ccccc3nc2C2CC2)n1)C1CCOCC1 [Example 1.253],1.4 nM
4,Cc1nc2ccccc2nc1/C=C/c1nc(C(=O)N(C)C2CCOCC2)cc(N2CCC(O)C2)n1 (stereo not shown) [Example 1.226],20 nM
5,Cc1cc2ccccc2nc1/C=C/c1nc(C(=O)NC2CCOCC2)cc(N2CCCC2)n1 [Example 1.260],2.5 nM
6,Cc1nc2ccccc2nc1/C=C/c1nc(C(=O)N(C2CCOCC2)C2CC2)cc(N2CCCC2)n1 [Example 1.211],0.76 nM
7,CN(C)c1nc(/C=C/c2nc(OC[C@@H]3CCC(=O)N3)cc(N3CCCC3)n2)nc2ccccc12 [Example 2.048],0.21 nM
8,Cc1nc(/C=C/c2nc(OC3CCOCC3)cc(N3CCCC3)n2)nc(N(C)C)c1C [Example 2.053],0.64 nM
9,CN(C)c1nc(/C=C/c2nc(OC3CCCCC3)cc(N3CCCC3)n2)nc2ccccc12 [Example 2.035],0.89 nM
10,Cc1nc2ccccc2nc1CCc1nc(C(=O)NC[C@@H]2CCCO2)cc(N2CCCC2)n1 [Example 5.006],3.3 nM
11,CCOc1nc2ccccc2nc1CCc1nc(C(=O)NC2CCOCC2)cc(N2CCCC2)n1 [Example 5.012],2.3 nM
12,CC(C)=NOc1cc(N2CCCC2)nc(/C=C/c2nc(N(C)C)c3ccccc3n2)n1 [Example 2.039],0.84 nM
13,Cc1nc2ccccc2nc1/C=C/c1nc(C(=O)NN2CCCCC2)cc(N2CCCC2)n1 [Example 1.220],0.49 nM
14,CN(C)c1nc(/C=C/c2nc(C(=O)NN3CCCCC3)cc(N3CCCC3)n2)nc2ccccc12 [Example 1.159],0.6 nM
15,Cc1nc2ccccc2nc1/C=C/c1cc(C(=O)NC2CCOCC2)nc(N2CCCC2)n1 [Example 4.001],0.86 nM

# Tested on: not given
# Test: not given
# Conditions: not given
row,Compound,melting point
1,COc1ccc(-c2cc(N3CCN(C)CC3)nc(/C=C/c3nc(-n4ccnc4)c4ccccc4n3)n2)cc1OC [Example 1.010],177 to 180 °C
2,"COc1ccc(-c2cc(N3CCC(NC(=O)CN(C)C)C3)nc(/C=C/c3nc(N(C)C)c4ccccc4n3)n2)cc1OC (stereo not shown) [Example 1.104, N^1-[1-(6-(3,4-dimethoxyphenyl)-2-{(E)-2-[4-(dimethylamino)quinazolin-2-yl]vinyl}pyrimidin-4-yl)pyrrolidin-3-yl]-N^2,N^2-dimethylglycine amide]",126 to 131 °C
3,"COc1ccc(-c2cc(N3CCC(O)C3)nc(/C=C/c3nc(N(C)C)c4ccccc4n3)n2)cc1OC (stereo not shown) [Example 1.007, 1-(6-(3,4-dimethoxyphenyl)-2-{(E)-2-[4-(dimethylamino)quinazolin-2-yl]vinyl}pyrimidin-4-yl)pyrrolidin-3-ol]",199 to 201 °C
4,COc1ccc(-c2cc(N3CCn4ccnc4C3)nc(/C=C/c3nc(N(C)C)c4ccccc4n3)n2)cc1OC [Example 1.008],103 to 108 °C
